The source made the active and inactive calls.
What was measured:
Vero [1] = assay: mammalian cell viability reduction – secondary assay, cytotoxicity control for West Nile virus antiviral project, dose response (AID 1650); type: functional; settings: Chlorocebus sabaeus
Vero [2] = assay: antiviral protection of cells from WNV – synthesized analogs, SAR follow-up (AID 2238); type: functional, cell-based; settings: Chlorocebus sabaeus
Vero [3] = assay: Vero 76 cell viability after compound exposure – Vero 76 cells, synthesized analogs, cytotoxicity control for West Nile virus antiviral project, SAR follow-up (AID 2414); type: functional; settings: Chlorocebus sabaeus
[4] = A Cell Based Assay for the Identification of Probe candidate Compounds with Anti- Venezuelan Equine Encephalitis virus. [Related pubchem assays: 2409, 2419, 1621, 2238, 2405, 2024, 2065, 2402, 2414, 1635, 1650, 2244 ]; type: functional
Vero [5] = assay: host cell viability loss, Vero E6 – synthesized analogs, cytotoxicity control for West Nile virus antiviral project, SAR follow-up (AID 2244); type: functional; settings: Chlorocebus sabaeus
Vero [6] = assay: Vero cell viability after compound exposure – synthesized analogs, set II, cytotoxicity control for West Nile virus antiviral project, SAR follow-up (AID 2402); type: functional; settings: Chlorocebus sabaeus
Vero [7] = assay: inhibition of WNV-induced cytopathic effect – cell-based, CPE readout (AID 1621); type: functional; settings: Chlorocebus sabaeus
Trypsin = Trypsin (Sus scrofa, UniProt P00761); assay: trypsin protease activity blockade – biochemical, quenched peptide fluorescence, cherry-pick, selectivity assay for Rce1 protease inhibitor project, dose response (AID 488789)
Chain of Trypsin (P00761 whole entry): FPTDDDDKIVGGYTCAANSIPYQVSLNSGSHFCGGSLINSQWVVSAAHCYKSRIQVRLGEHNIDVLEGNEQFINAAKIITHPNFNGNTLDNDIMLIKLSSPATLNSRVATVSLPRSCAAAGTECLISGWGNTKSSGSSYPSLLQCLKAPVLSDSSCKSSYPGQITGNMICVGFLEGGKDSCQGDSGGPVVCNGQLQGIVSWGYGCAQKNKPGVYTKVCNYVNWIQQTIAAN

[8] = target: C-C chemokine receptor type 6 (Homo sapiens, UniProt P51684); assay: antagonism of CCR6 beta-arrestin recruitment – cell-based, luminescent beta-arrestin readout, dose response (AID 504728); type: functional
Chain of C-C chemokine receptor type 6 (P51684 whole entry): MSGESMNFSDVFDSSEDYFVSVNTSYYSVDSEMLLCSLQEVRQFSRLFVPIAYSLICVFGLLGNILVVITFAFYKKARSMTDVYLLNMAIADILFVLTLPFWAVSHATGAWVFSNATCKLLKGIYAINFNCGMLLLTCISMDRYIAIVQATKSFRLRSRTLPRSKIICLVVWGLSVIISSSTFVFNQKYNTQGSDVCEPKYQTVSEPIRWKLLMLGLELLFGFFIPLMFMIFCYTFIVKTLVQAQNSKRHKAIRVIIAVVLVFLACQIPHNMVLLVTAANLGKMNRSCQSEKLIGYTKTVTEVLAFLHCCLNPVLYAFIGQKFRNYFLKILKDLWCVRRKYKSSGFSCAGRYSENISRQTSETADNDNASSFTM

NS3 = NS3 (Hepatitis C virus, UniProt A3EZJ3); assay: PubChem AID 2173; set-up: species or system Hepacivirus hominis
Chain of NS3 (A3EZJ3 whole entry): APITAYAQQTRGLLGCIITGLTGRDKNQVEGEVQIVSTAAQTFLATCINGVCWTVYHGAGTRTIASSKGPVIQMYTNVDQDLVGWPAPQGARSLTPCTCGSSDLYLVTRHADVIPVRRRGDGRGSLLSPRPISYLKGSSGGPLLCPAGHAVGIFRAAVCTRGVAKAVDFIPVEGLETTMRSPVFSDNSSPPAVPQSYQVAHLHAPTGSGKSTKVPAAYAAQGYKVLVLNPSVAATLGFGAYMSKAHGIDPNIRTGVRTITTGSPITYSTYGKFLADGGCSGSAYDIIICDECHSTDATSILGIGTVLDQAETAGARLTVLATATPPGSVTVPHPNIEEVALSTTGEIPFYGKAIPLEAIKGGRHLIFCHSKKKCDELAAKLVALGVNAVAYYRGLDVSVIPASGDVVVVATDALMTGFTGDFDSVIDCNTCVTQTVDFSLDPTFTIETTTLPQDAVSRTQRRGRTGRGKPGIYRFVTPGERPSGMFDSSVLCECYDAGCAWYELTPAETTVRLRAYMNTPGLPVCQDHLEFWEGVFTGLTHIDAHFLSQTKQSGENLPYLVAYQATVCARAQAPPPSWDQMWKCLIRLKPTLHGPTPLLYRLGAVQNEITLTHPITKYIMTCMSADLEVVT

Beta-galactosidase = Beta-galactosidase (Escherichia coli, UniProt Q8VNN2); assay: detection-enzyme interference by beta-gal modulators – biochemical, E. coli enzyme, set 3, artefact control for CCR6 antagonist project, dose response (AID 504712); type: functional
Chain of Beta-galactosidase (Q8VNN2 whole entry): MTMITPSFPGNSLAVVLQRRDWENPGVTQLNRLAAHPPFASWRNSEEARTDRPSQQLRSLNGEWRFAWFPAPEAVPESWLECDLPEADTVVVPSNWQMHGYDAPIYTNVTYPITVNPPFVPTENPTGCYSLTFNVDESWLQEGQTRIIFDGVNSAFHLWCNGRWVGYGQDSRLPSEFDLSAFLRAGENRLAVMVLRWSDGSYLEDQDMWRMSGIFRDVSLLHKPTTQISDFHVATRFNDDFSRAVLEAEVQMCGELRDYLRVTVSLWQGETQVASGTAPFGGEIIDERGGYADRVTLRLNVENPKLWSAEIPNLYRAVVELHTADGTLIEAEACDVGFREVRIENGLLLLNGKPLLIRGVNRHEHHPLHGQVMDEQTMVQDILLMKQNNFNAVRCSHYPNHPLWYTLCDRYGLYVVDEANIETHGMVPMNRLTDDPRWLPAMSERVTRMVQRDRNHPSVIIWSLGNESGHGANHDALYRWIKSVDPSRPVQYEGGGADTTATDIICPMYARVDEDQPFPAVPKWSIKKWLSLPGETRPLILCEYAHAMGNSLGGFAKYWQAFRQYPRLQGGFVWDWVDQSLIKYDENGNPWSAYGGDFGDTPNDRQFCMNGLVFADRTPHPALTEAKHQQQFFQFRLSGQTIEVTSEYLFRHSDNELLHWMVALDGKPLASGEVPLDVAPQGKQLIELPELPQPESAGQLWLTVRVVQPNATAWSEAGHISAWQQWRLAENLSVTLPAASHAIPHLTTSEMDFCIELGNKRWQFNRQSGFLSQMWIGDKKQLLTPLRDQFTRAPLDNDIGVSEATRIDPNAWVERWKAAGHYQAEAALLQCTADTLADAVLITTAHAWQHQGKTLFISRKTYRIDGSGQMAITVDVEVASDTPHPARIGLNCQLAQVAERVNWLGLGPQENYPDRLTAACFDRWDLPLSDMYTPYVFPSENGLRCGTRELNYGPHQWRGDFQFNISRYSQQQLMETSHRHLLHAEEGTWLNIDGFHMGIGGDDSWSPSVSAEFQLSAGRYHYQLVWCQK

[9] = target: Alkaline phosphatase, placental type (Homo sapiens, UniProt P05187); assay: human placental alkaline phosphatase inhibition – biochemical, luminescence, confirmation (AID 1512); type: functional
[10] = target: Dual specificity protein phosphatase 3 (Homo sapiens, UniProt P51452); assay: SAR VHR1 Fluorescent Assay for In Vitro dose response studies Set 2. [Related pubchem assays (depositor defined):AID1654, AID1661, AID1878]; type: functional
Chain of Dual specificity protein phosphatase 3 (P51452 whole entry): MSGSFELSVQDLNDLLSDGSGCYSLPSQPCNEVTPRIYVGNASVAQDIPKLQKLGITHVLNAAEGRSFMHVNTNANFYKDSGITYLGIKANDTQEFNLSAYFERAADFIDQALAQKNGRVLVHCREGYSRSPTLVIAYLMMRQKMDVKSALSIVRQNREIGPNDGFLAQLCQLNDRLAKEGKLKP

[11] = target: T1, Tyrosine-protein phosphatase non-receptor type 7 (Homo sapiens, UniProt P35236); assay: SAR analysis of chemical inhibitors of HePTP using a Fluorescent assay - Set 2. [Related pubchem assays (depositor defined):AID1059, AID1077, AID1661, AID2085, AID521]; type: functional
T1 sequence (P35236 whole entry): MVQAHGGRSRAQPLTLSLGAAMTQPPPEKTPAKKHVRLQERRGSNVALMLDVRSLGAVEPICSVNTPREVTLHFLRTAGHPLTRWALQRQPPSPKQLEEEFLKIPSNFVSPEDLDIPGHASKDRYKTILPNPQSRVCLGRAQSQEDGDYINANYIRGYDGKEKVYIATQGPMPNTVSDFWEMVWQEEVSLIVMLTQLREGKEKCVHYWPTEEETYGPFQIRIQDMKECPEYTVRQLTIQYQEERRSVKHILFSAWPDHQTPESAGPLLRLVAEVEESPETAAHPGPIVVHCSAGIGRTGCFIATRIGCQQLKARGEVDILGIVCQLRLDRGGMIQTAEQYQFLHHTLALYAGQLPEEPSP

[12] = Luminescence Cell-Based Dose Response HTS to Identify Inhibitors of 5'UTR Stem-Loop Driven Prion Protein mRNA Translation in H4 Neuroglioblastoma Cells. [Related pubchem assays: 1827 (Project Summary), 1813 (Primary HTS)]; type: functional
[13] = NIH3T3 cell viability loss – ATP luminescence, mouse fibroblasts, counter-screen, dose response (AID 2010); type: functional, cell-based;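 also: cells exposed to compound for about 90 hours before reading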
[14] = Trypanosoma cruzi growth suppression in host cells – NIH3T3 host cells, beta-gal luminescence, confirmation (AID 2044); type: functional, cell-based;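 also: intracellular parasites grown in NIH/3T3 mouse fibroblasts as host cells; luminescent beta-galactosidase reporter signal from transgenic T. cruzi replicating inside host cells; inhibitors lower the luminescence signal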
[15] = target: G-protein coupled receptor 35 (Homo sapiens, UniProt Q9HC97); assay: inhibition of zaprinast-stimulated GPR35 beta-arrestin translocation – imaging, U2OS, beta-arrestin-GFP, zaprinast agonist, primary screen (AID 2058); type: functional;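 also: antagonist potency meaning inhibition of agonist-induced arrestin redistribution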
Chain of G-protein coupled receptor 35 (Q9HC97 whole entry): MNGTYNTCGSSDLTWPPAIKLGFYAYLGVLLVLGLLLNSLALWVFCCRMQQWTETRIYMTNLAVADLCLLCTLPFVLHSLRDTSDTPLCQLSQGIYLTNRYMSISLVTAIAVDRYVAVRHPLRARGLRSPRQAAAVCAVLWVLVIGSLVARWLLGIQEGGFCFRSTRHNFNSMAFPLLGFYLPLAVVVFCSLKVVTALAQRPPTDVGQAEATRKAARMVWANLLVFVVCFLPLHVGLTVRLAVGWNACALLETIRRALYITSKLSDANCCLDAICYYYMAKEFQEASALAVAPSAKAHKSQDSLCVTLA

[16] = luciferase reporter signal suppression in cells – H4 neuroglioma cells, luminescence, dose response (AID 1990); type: functional, cell-based
[17] = target: T2, Ubiquitin-conjugating enzyme E2 N (Homo sapiens, UniProt P61088); type: functional;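 also: Dose-response confirmation in a TR-FRET assay detecting UBC13-driven polyubiquitin chain formation, inhibition measured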
T2 sequence (P61088 whole entry): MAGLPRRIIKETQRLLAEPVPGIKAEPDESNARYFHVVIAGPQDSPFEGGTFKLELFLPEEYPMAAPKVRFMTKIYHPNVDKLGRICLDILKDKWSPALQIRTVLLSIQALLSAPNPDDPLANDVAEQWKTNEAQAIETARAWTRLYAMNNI

[18] = alpha-synuclein stem-loop luciferase translation blockers – H4 neuroglioma cells, luminescence, confirmation (AID 1988); type: functional, cell-based
Perilipin-1/ABHD5 = Perilipin-1/ABHD5 (Homo sapiens, UniProt O60240+Q8WTS1); assay: Luminescence-based biochemical high throughput dose response assay for inhibitors of the interaction of the lipase co-activator protein, abhydrolase domain containing 5 (ABHD5) with perilipin-1 (PLIN1) (2K validation set). [Related pubchem assays (depositor defined):AID493027, AID493057]
[19] = viability loss in HeLa cells – cytotoxicity control for MgcRacGAP inhibitor project, dose response (AID 624300); type: functional
Vero [20] = assay: cells; type: functional, cell-based; settings: Chlorocebus sabaeus
[21] = target: 1-acylglycerol-3-phosphate O-acyltransferase ABHD5/Perilipin-5 (Homo sapiens, UniProt Q00G26+Q8WTS1); assay: Luminescence-based biochemical high throughput dose response assay for inhibitors of the interaction of the lipase co-activator protein, abhydrolase domain containing 5 (ABHD5) with perilipin-5 (MLDP; PLIN5) (2K validation set). [Related pubchem assays (depositor defined):AID493035, AID493241]
Vero [22] = assay: cells; type: functional; settings: Chlorocebus sabaeus
[23] = target: G-protein coupled receptor 55 (Homo sapiens, UniProt Q9Y2T6); assay: selective activators of receptor GPR55 – imaging, U2OS cells, beta-arrestin-GFP redistribution, primary screen (AID 1961); type: functional
Chain of G-protein coupled receptor 55 (Q9Y2T6 whole entry): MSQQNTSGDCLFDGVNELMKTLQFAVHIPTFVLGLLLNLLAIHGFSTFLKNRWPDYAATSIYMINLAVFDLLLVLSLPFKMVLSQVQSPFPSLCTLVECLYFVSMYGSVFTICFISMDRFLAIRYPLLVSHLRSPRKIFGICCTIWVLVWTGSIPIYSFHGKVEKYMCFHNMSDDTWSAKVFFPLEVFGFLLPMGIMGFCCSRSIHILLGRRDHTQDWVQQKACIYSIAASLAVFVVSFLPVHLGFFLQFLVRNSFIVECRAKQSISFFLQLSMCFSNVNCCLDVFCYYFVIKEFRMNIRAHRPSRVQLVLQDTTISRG

[24] = RanGTP/importin-beta interaction disruptors – biochemical, plate reader, dry powder, dose response (AID 493048); set-up: species or system Homo sapiens
Mu-type opioid receptor = Mu-type opioid receptor (Homo sapiens, UniProt P35372); assay: SAR Analysis of Antagonists of the MOR Receptor using an Image-Based Assay - Set 3. [Related pubchem assays (depositor defined):AID1777, AID1785, AID1786, AID1966, AID2133, AID2136, AID2284, AID2285, AID2420]; type: functional
Chain of Mu-type opioid receptor (P35372 whole entry): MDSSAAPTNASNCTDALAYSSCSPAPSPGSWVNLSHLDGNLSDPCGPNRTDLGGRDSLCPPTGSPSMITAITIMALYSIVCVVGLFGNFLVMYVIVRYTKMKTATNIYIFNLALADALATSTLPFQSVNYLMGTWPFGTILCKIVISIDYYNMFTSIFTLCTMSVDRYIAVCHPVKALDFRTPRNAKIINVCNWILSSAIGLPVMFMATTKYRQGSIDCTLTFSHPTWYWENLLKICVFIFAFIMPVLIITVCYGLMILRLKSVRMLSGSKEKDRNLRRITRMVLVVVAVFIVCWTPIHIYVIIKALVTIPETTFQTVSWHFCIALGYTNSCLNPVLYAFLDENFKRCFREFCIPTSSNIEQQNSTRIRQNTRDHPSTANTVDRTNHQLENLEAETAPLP

[25] = target: Delta-type opioid receptor (Homo sapiens, UniProt P41143); assay: SAR Analysis of Antagonists of the DOR Receptor using an Image-Based Assay - Set 3. [Related pubchem assays (depositor defined):AID1777, AID1785]; type: functional;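 also: U2OS cells expressing DOR1 and beta-arrestin GFP stimulated with 100 nM SNC80; imaging of GFP-tagged beta-arrestin moving into spots after receptor activation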
[26] = target: T3, Kappa-type opioid receptor (Homo sapiens, UniProt P41145); assay: SAR analysis of small molecule antagonists of the kappa opioid receptor via a luminescent beta-arrestin assay - Set 3. [Related pubchem assays (depositor defined):AID1777, AID1778, AID1785, AID1786, AID1966, AID2133, AID2136, AID2285, AID2495]; type: functional
T3 sequence (P41145 whole entry): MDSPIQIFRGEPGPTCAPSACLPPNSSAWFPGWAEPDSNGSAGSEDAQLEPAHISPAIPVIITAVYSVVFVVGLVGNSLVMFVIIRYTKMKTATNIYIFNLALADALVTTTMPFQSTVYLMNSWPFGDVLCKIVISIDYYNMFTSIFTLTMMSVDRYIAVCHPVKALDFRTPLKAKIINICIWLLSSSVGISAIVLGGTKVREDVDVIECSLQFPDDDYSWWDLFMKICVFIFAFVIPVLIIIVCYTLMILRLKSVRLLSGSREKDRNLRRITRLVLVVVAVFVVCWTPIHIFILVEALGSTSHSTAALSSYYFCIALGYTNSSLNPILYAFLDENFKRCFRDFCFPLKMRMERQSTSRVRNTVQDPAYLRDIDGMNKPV

[27] = target: T3, Kappa-type opioid receptor; assay: SAR analysis of Antagonists of the Kappa Opioid Receptor (KOR) using an Image-Based Assay - Set 3. [Related pubchem assays (depositor defined):AID1777, AID1785]; type: functional
[28] = target: Scavenger receptor class B member 1 (Mus musculus, UniProt Q61009); assay: mouse SR-BI DiI-HDL uptake blockers – ldlA[mSR-BI] cells, fluorescence, cherry pick, dose response (AID 493194); type: functional, cell-based;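 also: cellular uptake of fluorescent DiI-labeled HDL measured as cell fluorescence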
Chain of Scavenger receptor class B member 1 (Q61009 whole entry): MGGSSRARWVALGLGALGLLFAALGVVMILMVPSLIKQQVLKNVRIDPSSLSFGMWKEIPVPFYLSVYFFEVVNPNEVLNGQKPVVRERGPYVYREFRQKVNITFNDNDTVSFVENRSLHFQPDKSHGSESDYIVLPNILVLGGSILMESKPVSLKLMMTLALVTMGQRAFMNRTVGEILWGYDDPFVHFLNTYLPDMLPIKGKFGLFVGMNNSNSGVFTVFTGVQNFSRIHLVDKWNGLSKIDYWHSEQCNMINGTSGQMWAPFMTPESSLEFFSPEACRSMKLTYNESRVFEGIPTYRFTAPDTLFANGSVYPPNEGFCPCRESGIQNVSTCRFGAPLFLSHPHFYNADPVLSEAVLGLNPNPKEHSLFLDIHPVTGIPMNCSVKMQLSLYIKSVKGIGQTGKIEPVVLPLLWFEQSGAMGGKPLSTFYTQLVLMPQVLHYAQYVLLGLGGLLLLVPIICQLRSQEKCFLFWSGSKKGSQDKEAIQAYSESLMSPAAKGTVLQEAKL

Neutrophil collagenase = Neutrophil collagenase (Homo sapiens, UniProt P22894); assay: potency against MMP13, MMP2, MMP3, MMP14 – biochemical, probe development, late stage results, selectivity assay for MMP13 inhibitor project, late-stage follow-up, panel member MMP-8 [IC50 Assay] (AID 2067)
Chain of Neutrophil collagenase (P22894 whole entry): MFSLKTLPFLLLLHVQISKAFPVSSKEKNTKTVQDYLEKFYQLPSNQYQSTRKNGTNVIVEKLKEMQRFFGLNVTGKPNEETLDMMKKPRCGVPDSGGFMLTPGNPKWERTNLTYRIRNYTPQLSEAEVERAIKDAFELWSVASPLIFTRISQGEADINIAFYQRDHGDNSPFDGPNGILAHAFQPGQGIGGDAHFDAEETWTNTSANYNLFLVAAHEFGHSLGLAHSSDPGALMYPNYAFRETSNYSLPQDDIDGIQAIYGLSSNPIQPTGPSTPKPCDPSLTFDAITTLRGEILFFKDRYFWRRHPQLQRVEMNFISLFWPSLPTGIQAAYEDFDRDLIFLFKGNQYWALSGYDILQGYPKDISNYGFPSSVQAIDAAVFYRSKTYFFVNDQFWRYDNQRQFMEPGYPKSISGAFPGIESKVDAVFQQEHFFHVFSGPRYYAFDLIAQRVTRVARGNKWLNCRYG

[29] = target: T4, Short transient receptor potential channel 4 (Mus musculus, UniProt Q9QUQ5); assay: potentiation of DAMGO-evoked TRPC4 calcium signal – cell-based, HEK293 TRPC4/mu-opioid, Fluo-4 calcium, EC20 DAMGO, dose response (AID 434941); type: functional
T4 sequence (Q9QUQ5 whole entry): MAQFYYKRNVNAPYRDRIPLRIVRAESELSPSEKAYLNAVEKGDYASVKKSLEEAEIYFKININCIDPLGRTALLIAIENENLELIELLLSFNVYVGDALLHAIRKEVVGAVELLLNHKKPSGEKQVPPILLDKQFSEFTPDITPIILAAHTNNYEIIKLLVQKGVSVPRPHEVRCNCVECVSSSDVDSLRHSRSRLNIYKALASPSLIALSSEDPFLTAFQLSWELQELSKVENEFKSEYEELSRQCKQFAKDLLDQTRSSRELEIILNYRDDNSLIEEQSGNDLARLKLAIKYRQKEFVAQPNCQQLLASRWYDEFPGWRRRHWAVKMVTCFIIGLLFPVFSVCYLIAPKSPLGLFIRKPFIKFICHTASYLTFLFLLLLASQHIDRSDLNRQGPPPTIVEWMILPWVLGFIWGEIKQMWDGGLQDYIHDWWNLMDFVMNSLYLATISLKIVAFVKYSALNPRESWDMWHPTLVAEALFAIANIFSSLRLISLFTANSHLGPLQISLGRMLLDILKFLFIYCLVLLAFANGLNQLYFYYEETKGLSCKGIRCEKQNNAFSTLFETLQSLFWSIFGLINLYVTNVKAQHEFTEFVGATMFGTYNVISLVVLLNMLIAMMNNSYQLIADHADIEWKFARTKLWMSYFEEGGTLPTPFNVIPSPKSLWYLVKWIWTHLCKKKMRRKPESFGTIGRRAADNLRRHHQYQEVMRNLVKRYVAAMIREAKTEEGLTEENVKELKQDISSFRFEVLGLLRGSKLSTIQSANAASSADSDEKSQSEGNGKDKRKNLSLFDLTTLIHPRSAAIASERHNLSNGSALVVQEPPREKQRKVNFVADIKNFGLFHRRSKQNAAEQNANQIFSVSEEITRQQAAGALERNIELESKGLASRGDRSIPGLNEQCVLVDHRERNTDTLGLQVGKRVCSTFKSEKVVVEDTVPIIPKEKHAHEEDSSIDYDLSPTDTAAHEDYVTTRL

SMILES: CC1CCN(CCCNC(=O)c2cc3c(s2)-c2ccccc2OC3)CC1
- CC50 (Vero [1]): > 100 µM (active)
- IC50 (Vero [2]): > 40 µM (active)
- CC50 (Vero [3]): > 66.6 µM (active)
- IC50 [4]: 18.2 µM (active)
- CC50 (Vero [5]): 26.2 µM (active)
- CC50 (Vero [6]): 19.5 µM (active)
- IC50 (Vero [7]): 25.1 µM (active)

SMILES: COCc1c(Br)c(C)nc(O)c1C#N
- AC50 (Trypsin): 72.8 µM (active)

SMILES: Cc1ccc(C(CCN(Cc2ccccc2)C(=O)c2ccco2)c2ccco2)cc1 (stereo unspecified)
- IC50 [8]: > 66.6 µM (inactive)
- IC50 (NS3): 8.82 µM (active)
- IC50 (Beta-galactosidase): > 66.6 µM (inactive)

SMILES: Cc1ccc(C)c(NC(S)=NNC(=O)c2ccc(Br)o2)c1
- IC50 [9]: > 100 µM (inactive)
- IC50 [10]: > 100 µM (inactive)
- IC50 [11]: > 100 µM (inactive)

SMILES: CCN(CC)CCCNc1ccc(-c2nnc(-c3ccc(OCC(C)C)cc3)o2)cn1
- EC50 [12]: 13.5 µM (active)
- EC50 (cells): 0.394 µM (active)
- EC50 [13]: 4.75 µM (active)
- EC50 [14]: < 0.1 µM (active)
- IC50 [15]: 1.96 µM (active)
- EC50 [16]: > 120 µM (not active)
- IC50 [17]: > 20 µM (inactive)
- EC50 [18]: > 30 µM (not active)

SMILES: COC(=O)C1=C(C)N(Cc2ccco2)C(=O)/C1=C\c1ccc([N+](=O)[O-])cc1
- IC50 (Perilipin-1/ABHD5): 2.07 µM (active)
- CC50 [19]: 62.9 µM (active)
- IC50 (Vero [20]): > 25 µM (active)
- IC50 [21]: 2.27 µM (active)
- CC50 (Vero [22]): 17.6 µM (active)

SMILES: CC(C)C[C@@H](CSc1ccc(Br)cc1)N1CCN(CCc2ccccc2)CCC1=O
- EC50 [23]: 7.59 µM (active)

SMILES: COCCNC(=O)/C(C#N)=C/c1cn(CC(=O)NCc2ccco2)c2ccccc12
- AC50 [24]: 174 µM (active)

SMILES: O=C(Cn1c(=O)c2cccn2c2ccccc21)NCCCN1CCN(Cc2ccccc2)CC1
- IC50 (Mu-type opioid receptor): > 32 µM (inactive)
- IC50 [25]: > 32 µM (inactive)
- IC50 [26]: > 20 µM (inactive)
- IC50 [27]: > 32 µM (inactive)

SMILES: Cc1cccc(N2CCN(C(=O)CN3C(=O)NC4(CCCCCC4)C3=O)CC2)c1C
- AC50 [28]: 47.4 µM (active)

SMILES: COC(=O)c1ccc(CSc2nc3c(c(=O)[nH]2)CCC3)cc1
- IC50 (Neutrophil collagenase): > 39.8 µM (inactive)

SMILES: O=C(NCc1ccccc1)C1=C[C@H](c2ccc(C(F)(F)F)cc2)C[C@H](OCc2ccc(CO)cc2)O1
- EC50 [29]: 5.96 µM (active)
